Measured values reported in patent US10590137B2, “Mercaptopurine hemihydrate” (THE REGENTS OF THE UNIVERSITY OF MICHIGAN, priority 2016, dated 2020).
Where two headings read alike, the source gives them in different places. Blank lines part the entries; values can stand above or below the compound they belong to.

Columns and labels:
[1] = pharmacokinetic studies in rats (oral suspension vs IV); format: in vivo, Male Sprague-Dawley rats; details: rat; for % F (bioavailability): oral 30 mg/kg vs IV 15 mg/kg monohydrate; for AUC / Cmax / Tmax: oral gavage 30 mg/kg suspension, 30 mg/kg; for AUC / Cmax: plasma
Description: The bioavailability of the three forms was determined by comparison of suspension and intravenous administration in order to quantify the effect. […] Since the Tmax of the hemihydrate was much higher than the other two forms, it seems more compound was able to be absorbed overall even though over a somewhat longer time period, whereas the monohydrate and anhydrate were limited due to the solubility of the monohydrate form (FIG. 3).
Pharmacokinetic studies in rats were performed at Avastus Preclinical Services, Cambridge, Mass. All procedures were performed in accordance with the Guide for Care and Use of Laboratory Animals and were approved by the Avastus Institutional Animal Care and Use Committee. Male Sprague-Dawley rats weighing 200-300 g were dosed with mercaptopurine via oral gavage with a dosing volume of 5 mL/kg and a dose of 30 mg mercaptopurine form/kg or via IV administration at a dosing volume of 5 mL/kg and a dose of 15 mg mercaptopurine monohydrate/kg. Each group consisted of three rats, with one oral administration group for each form of mercaptopurine, and one IV administration group using the monohydrate form for reference. Blood samples were collected at time points of 15, 30, 60, 120, 240 minutes as well as 8 and 24 hours post dose. An additional time point at 5 minutes was taken for the IV administration group. Samples were centrifuged and the decanted plasma samples were stored at −80° C. until analysis.
The plasma samples were analyzed via LC-MS/MS using an Agilent 6410 mass spectrometer coupled with an Agilent 1200 HPLC and a CTC PAL chilled autosampler, all controlled by MassHunter software (Agilent). All plasma samples were crashed with three volumes of methanol containing an […] and centrifuged to remove precipitated protein before analysis. Samples were compared to a calibration curve prepared in rat blank plasma. Separation was performed on a C18 reverse phase HPLC column (Kinetex PFP, 2.6 μm, 2.1×50 mm) using an acetonitrile-water gradient system and peaks were analyzed by MS using ESI ionization in MRM mode. Peak area ratio to internal standard is used to interpolate plasma concentration for each sample from the calibration curve of peak area internal standard ratio to concentration. Pharmacokinetic parameters were fit using a custom WinNonlin analysis with PO dosing analysis. Area under the curve (AUC) for mercaptopurine was also calculated using the custom WinNonlin analysis. Cmax (maximum plasma concentration) and Tmax (time to reach maximum plasma concentration) were determined by visual inspection of the experimental data. The bioavailability (% F) was calculated from the following equation:
[formula] Frel was calculated with respect to the monohydrate form.

[2] = stability to hydration: slurry conversion monitored by non-contact Raman probe; format: physicochemical; details: aqueous slurry; for time to convert to the monohydrate form: full conversion
Description: In order to determine the stability to hydration, slurries of the anhydrate and hemihydrate forms were monitored using a non-contact Raman probe.
Raman spectra during slurry conversion were collected using a Kaiser Optical Systems Raman Rxn Microprobe equipped with a Multi-Rxn non-contact optic, 785 nm laser, and a multi-channel CCD detector. Spectra were collected with a range of 150-3425 cm^−1 and then analyzed using the HoloGRAMS 4.1 software package (Kaiser). Calibration was performed using a HoloLab Calibration Accessory and a cyclohexane standard.

[3] = maximum solubility in water by turbidity measurements (CrystalBreeder); details: at 37° C., Van't Hoff
Description: (§1) Solubility measurements were taken using a CrystalBreeder system (Technobis). Known amounts of solid compound and water were added to 0.3 mL clear round bottom vials equipped with a stir bar. The vials were sealed with a Teflon coated rubber crimped caps to prevent evaporation of solvent. Vials were loaded into one of the independently heated aluminum reactor blocks and turbidity measurements were taken using an LED light source and detector to measure particles in solution. Samples were heated to 85° C. at a rate of 0.2° C./min, held at 85° C. for 30 minutes, and then cooled to 0° C. at a rate of 0.2° C./min. Clear points were calculated based on the temperature at which 100% transmittance of solution was reached. Van't Hoff plots of concentration vs. time were produced from the data using CrystalClear software (Technobis) to determine the solubility of each form at different temperatures.

some cancer lines = details: cited from earlier work
[4] = at 37° C.; background statement; cited from earlier work
physchem = details: water, 37 °C, thermodynamic from solid
Description: as §1

[5] = thermally-induced phase transitions by DSC and variable temperature PXRD; format: physicochemical; details: for loss of crystallinity corresponding with a loss of water: variable temperature PXRD, conversion to anhydrate
Description: DSC analysis and variable temperature PXRD were used to analyse the thermally-induced phase transitions of the compounds.
Variable temperature PXRD data were collected on a Rigaku SmartLab diffractometer using Cu-Kα radiation (λ=1.54187 Å) and operating at 40 kV and 44 mA. Samples were placed on a glass cover slip on top of a copper block that was heated at 2° C./min using a J-KEM Model 210 temperature controller. The setup was covered with a housing of Kapton to keep heat in but allow X-rays to penetrate. The spectrum was collected by scanning […] from 20 to 29° with a step size of 0.01° and a step speed of 0.1 seconds. Powder patterns were processed using Jade 8 XRD Pattern Processing, Identification & Quantification analysis software.^1
Thermograms of the monohydrate and hemihydrate forms were recorded on a TA Instruments Q20 DSC. […] Calibration of the instrument was performed using an indium standard. Thermograms were analyzed using TA Universal Analysis 2000, V 4.5A.

% F (bioavailability) [1]: 2.9% | AUC [1]: 430 ± 30 ng·h/mL | Cmax [1]: 260 ± 10 ng/mL | Tmax [1]: 49.8 ± 17.4 min | time to convert to the monohydrate form [2]: 2 to 5 h | average solubility in water [3]: 400 µg/mL
Compound: Sc1ncnc2nc[nH]c12 [Anhydrate, mercaptopurine]

Compound: S=c1[nH]cnc2nc[nH]c12 [Mercaptopurine]
IC50 (some cancer lines): 500 nM

Cmax ([1]; male, Sprague-Dawley, po, read-out: Cmax): 230 ± 50 ng/mL | % F (bioavailability) ([1]; monohydrate): 1.4% | AUC ([1]; monohydrate): 210 ± 60 ng·h/mL | Tmax ([1]; monohydrate): 49.8 ± 17.4 min | solubility (physchem): 249 µg/mL | Tmax of merged endothermic event (water loss and loss of crystallinity) ([5]; open DSC pan): 177 °C | loss of crystallinity event ([5]; sealed DSC pan): ~190 °C | water loss event ([5]; sealed DSC pan): ~140 °C | loss of crystallinity corresponding with a loss of water ([5]; monohydrate): ~160 °C
Compound: Sc1ncnc2nc[nH]c12 [Monohydrate, mercaptopurine monohydrate]
water solubility [4]: 249 µg/mL

% F (bioavailability) ([1]; hemihydrate): 3.8% | AUC ([1]; hemihydrate): 570 ± 120 ng·h/mL | Cmax ([1]; hemihydrate): 280 ± 110 ng/mL | Tmax ([1]; hemihydrate): 100 ± 34.8 min | time to convert to the monohydrate form ([2]; hemihydrate): approximately 70 hours | time at which conversion to the monohydrate begins ([2]; onset): approximately 5 hours | average solubility in water ([3]; hemihydrate): 390 µg/mL | dehydration temperature (water loss, endothermic event) ([5]; DSC / variable temperature PXRD): 240 °C | loss of crystallinity corresponding with a loss of water ([5]; hemihydrate): does not show any loss of crystallinity
Compound: Sc1ncnc2nc[nH]c12 [Hemihydrate, mercaptopurine hemihydrate]
